Laboratory results reported in US12544395B2, “Combination compositions comprising a beta-lactamase inhibitor and uses thereof” (priority 2018, dated 2026).

Columns and labels:
Type in all cases: cell-based
E. coli Si-FDL-GES = assay: microbe, parasite or virus in culture
E. coli SI-M004 = assay: Broth microdilution MIC (strain enzymes: SHV-2, GES-12)
E. coli 25922 = assay: Broth microdilution MIC (strain enzymes: None detected)
K. oxytoca 176877 = assay: Broth microdilution MIC (strain enzymes: SHV-105)
K. oxytoca 496 #2 = assay: Broth microdilution MIC (strain enzymes: SHV-105, TEM-1)
K. pneumoniae 304487 = assay: Broth microdilution MIC (strain enzymes: SHV-12,TEM-1); details: with inhibitor at 1 μg/mL

Structure (SMILES): CCC(=O)N[C@H]1Cc2cccc(C(=O)O)c2OB1O [Compound 2, (R)-2-hydroxy-3-propionamido-3,4-dihydro-2H-benzo[e][1,2]oxaborinine-8-carboxylic acid]
- MIC of cefixime (CFM) (E. coli Si-FDL-GES; with inhibitor at 1 μg/mL): 0.25 µg/mL
- MIC of ceftibuten (CTB) (E. coli Si-FDL-GES; with inhibitor at 1 μg/mL): 0.125 µg/mL
- MIC of cefalexin (LEX) (E. coli Si-FDL-GES; with inhibitor at 2 μg/mL): 0.5 µg/mL
- MIC of cefdinir (CDR) (E. coli Si-FDL-GES; with inhibitor at 2 μg/mL): 0.5 µg/mL
- MIC of cefixime (CFM) (E. coli Si-FDL-GES; with inhibitor at 2 μg/mL): 0.125 µg/mL
- MIC of ceftibuten (CTB) (E. coli Si-FDL-GES; with inhibitor at 2 μg/mL): 0.125 µg/mL
- MIC of cefalexin (LEX) (E. coli Si-FDL-GES; with inhibitor at 4 μg/mL): 0.5 µg/mL
- MIC of cefdinir (CDR) (E. coli Si-FDL-GES; with inhibitor at 4 μg/mL): 0.5 µg/mL
- MIC of cefixime (CFM) (E. coli Si-FDL-GES; with inhibitor at 4 μg/mL): 0.125 µg/mL
- MIC of ceftibuten (CTB) (E. coli Si-FDL-GES; with inhibitor at 4 μg/mL): 0.125 µg/mL
- MIC of cefalexin (LEX) (E. coli SI-M004; with inhibitor at 1 μg/mL): 0.5 µg/mL
- MIC of cefdinir (CDR) (E. coli SI-M004; with inhibitor at 1 μg/mL): 0.5 µg/mL
- MIC of cefixime (CFM) (E. coli SI-M004; with inhibitor at 1 μg/mL): 4 µg/mL
- MIC of ceftibuten (CTB) (E. coli SI-M004; with inhibitor at 1 μg/mL): 0.25 µg/mL
- MIC of cefalexin (LEX) (E. coli SI-M004; with inhibitor at 2 μg/mL): 0.5 µg/mL
- MIC of cefdinir (CDR) (E. coli SI-M004; with inhibitor at 2 μg/mL): 0.5 µg/mL
- MIC of cefixime (CFM) (E. coli SI-M004; with inhibitor at 2 μg/mL): 4 µg/mL
- MIC of ceftibuten (CTB) (E. coli SI-M004; with inhibitor at 2 μg/mL): 0.125 µg/mL
- MIC of cefalexin (LEX) (E. coli SI-M004; with inhibitor at 4 μg/mL): 0.5 µg/mL
- MIC of cefdinir (CDR) (E. coli SI-M004; with inhibitor at 4 μg/mL): 0.5 µg/mL
- MIC of cefixime (CFM) (E. coli SI-M004; with inhibitor at 4 μg/mL): 1 µg/mL
- MIC of ceftibuten (CTB) (E. coli SI-M004; with inhibitor at 4 μg/mL): 0.125 µg/mL
- MIC of cefalexin (LEX) (E. coli 25922; with inhibitor at 1 μg/mL): 0.125 µg/mL
- MIC of cefdinir (CDR) (E. coli 25922; with inhibitor at 1 μg/mL): 0.125 µg/mL
- MIC of cefixime (CFM) (E. coli 25922; with inhibitor at 1 μg/mL): 0.125 µg/mL
- MIC of ceftibuten (CTB) (E. coli 25922; with inhibitor at 1 μg/mL): 0.125 µg/mL
- MIC of cefalexin (LEX) (E. coli 25922; with inhibitor at 2 μg/mL): 0.125 µg/mL
- MIC of cefdinir (CDR) (E. coli 25922; with inhibitor at 2 μg/mL): 0.125 µg/mL
- MIC of cefixime (CFM) (E. coli 25922; with inhibitor at 2 μg/mL): 0.06 µg/mL
- MIC of ceftibuten (CTB) (E. coli 25922; with inhibitor at 2 μg/mL): 0.06 µg/mL
- MIC of cefalexin (LEX) (E. coli 25922; with inhibitor at 4 μg/mL): 0.125 µg/mL
- MIC of cefdinir (CDR) (E. coli 25922; with inhibitor at 4 μg/mL): 0.125 µg/mL
- MIC of cefixime (CFM) (E. coli 25922; with inhibitor at 4 μg/mL): 0.06 µg/mL
- MIC of ceftibuten (CTB) (E. coli 25922; with inhibitor at 4 μg/mL): 0.06 µg/mL
- MIC of cefalexin (LEX) (K. oxytoca 176877; with inhibitor at 1 μg/mL): 2 µg/mL
- MIC of cefdinir (CDR) (K. oxytoca 176877; with inhibitor at 1 μg/mL): 2 µg/mL
- MIC of cefixime (CFM) (K. oxytoca 176877; with inhibitor at 1 μg/mL): 1 µg/mL
- MIC of ceftibuten (CTB) (K. oxytoca 176877; with inhibitor at 1 μg/mL): 0.5 µg/mL
- MIC of cefalexin (LEX) (K. oxytoca 176877; with inhibitor at 2 μg/mL): 2 µg/mL
- MIC of cefdinir (CDR) (K. oxytoca 176877; with inhibitor at 2 μg/mL): 2 µg/mL
- MIC of cefixime (CFM) (K. oxytoca 176877; with inhibitor at 2 μg/mL): 0.5 µg/mL
- MIC of ceftibuten (CTB) (K. oxytoca 176877; with inhibitor at 2 μg/mL): 0.125 µg/mL
- MIC of cefalexin (LEX) (K. oxytoca 176877; with inhibitor at 4 μg/mL): 1 µg/mL
- MIC of cefdinir (CDR) (K. oxytoca 176877; with inhibitor at 4 μg/mL): 1 µg/mL
- MIC of cefixime (CFM) (K. oxytoca 176877; with inhibitor at 4 μg/mL): 0.5 µg/mL
- MIC of ceftibuten (CTB) (K. oxytoca 176877; with inhibitor at 4 μg/mL): 0.25 µg/mL
- MIC of cefalexin (LEX) (K. oxytoca 496 #2; with inhibitor at 1 μg/mL): 0.25 µg/mL
- MIC of cefdinir (CDR) (K. oxytoca 496 #2; with inhibitor at 1 μg/mL): 0.25 µg/mL
- MIC of cefixime (CFM) (K. oxytoca 496 #2; with inhibitor at 1 μg/mL): 0.25 µg/mL
- MIC of ceftibuten (CTB) (K. oxytoca 496 #2; with inhibitor at 1 μg/mL): 0.125 µg/mL
- MIC of cefalexin (LEX) (K. oxytoca 496 #2; with inhibitor at 2 μg/mL): 0.25 µg/mL
- MIC of cefdinir (CDR) (K. oxytoca 496 #2; with inhibitor at 2 μg/mL): 0.25 µg/mL
- MIC of cefixime (CFM) (K. oxytoca 496 #2; with inhibitor at 2 μg/mL): 0.125 µg/mL
- MIC of ceftibuten (CTB) (K. oxytoca 496 #2; with inhibitor at 2 μg/mL): 0.125 µg/mL
- MIC of cefalexin (LEX) (K. oxytoca 496 #2; with inhibitor at 4 μg/mL): 0.06 µg/mL
- MIC of cefdinir (CDR) (K. oxytoca 496 #2; with inhibitor at 4 μg/mL): 0.06 µg/mL
- MIC of cefixime (CFM) (K. oxytoca 496 #2; with inhibitor at 4 μg/mL): 0.06 µg/mL
- MIC of ceftibuten (CTB) (K. oxytoca 496 #2; with inhibitor at 4 μg/mL): 0.125 µg/mL
- MIC of cefalexin (LEX) (K. pneumoniae 304487): 1 µg/mL
- MIC of cefdinir (CDR) (K. pneumoniae 304487): 1 µg/mL
- MIC of cefixime (CFM) (K. pneumoniae 304487): 1 µg/mL
- MIC of ceftibuten (CTB) (K. pneumoniae 304487): 0.25 µg/mL
